Columns and labels:
yeast cells = test: Yeast cell-cycle progression (large-budded / metaphase-arrested cells) after rapamycin-induced anchoring; assay type: cell-based, budding yeast
Experimental: Stock solution (1 mg ml^−1) of rapamycin in DMSO was diluted ×1,000 to achieve 1 μg ml^−1 final concentration in all experiments involving rapamycin-induced dimerization.
(§1) The ATP analogues 1-NMPP1 and 1-NAPP1 (final concentration 50 μM) were used to block the activity of mps1-as1 and ipl1-as6, respectively. Cells were first synchronized in S-phase using 100 mM hydroxyl urea (HU) for 2.5 h, washed with YPD, and then released into media containing the appropriate inhibitor for 15 min. This was followed by the addition of rapamycin to the media to anchor Mps1-Frb at Mtw1-C. The bud size was used to monitor cell-cycle progress.
Anaphase cells in cycling cultures will also be scored as large-budded cells by this criterion. In strains carrying fluorescent markers, the separation of the kinetochore clusters or spindle pole bodies was used to determine whether or not the cells arrested in mitosis. Large-budded cells with kinetochore-cluster separation smaller than 1 μm or spindle length smaller than 2 μm were scored as metaphase-arrested cells (ref. 68; herein incorporated by reference in its entirety).

ipl1-as6 = test: Spindle localization of Sli15-GFP in pre-anaphase cells expressing ipl1-as6; assay type: cell-based, budding yeast; settings: 50 μM
Experimental: as §1
To study the effect of 1-NAPP1 on ipl1-as6 activity, the spindle localization of Sli15-GFP was measured in pre-anaphase cells67. The bud size was used to find pre-anaphase cells. If the bud was smaller than 50% in size as compared with the mother cell, and contained a short bar of Sli15-GFP located within the mother cell and at the bud neck, then the cell was deemed to be in pre-anaphase.

HeLa cells = test: Duration of mitosis / mitotic arrest by time-lapse imaging of HeLa cells expressing rapamycin-dimerizable Mps1 and KNL1 phosphodomain (eSAC); assay type: cell-based, human
Source text: As described elsewhere herein, a kinetochore-independent SAC activator was engineered which comprises a region of KNL1 that contains a series of Mps1 phosphorylation sites, known as “MELT repeats”, which are necessary for SAC activation, but lacks the kinetochore-localization domain at the C-terminus or the newly identified transient localization domain at its N-terminus (FIG. 21). FKBP12 was fused to this minimal KNL1 phosphodomain and FRB to Mps1, and rapamycin was used to induce dimerization of the fusion proteins in HeLa cells (FIGS. 17B, 22). […] These cells maintained an aligned metaphase plate indicating an inability to initiate anaphase and that the observed mitotic arrest was not due to the disruption of kinetochore-microtubule interactions. […] To further ensure kinetochore-independent operation of the dimerized proteins, the kinetochore-localization domain of Mps1 was removed (FIG. 17E). […] Furthermore, individually inhibiting the kinase activity of exogenous Mps1 using an analog-sensitive version of the kinase domain or preventing the phosphorylation of the minimal KNL1 phosphodomain by using a non-phosphorylatable version of the phosphodomain each prevented the rapamycin-induced mitotic arrest (FIG. 23). Thus, the catalytic activity of the Mps1 kinase domain and the Mps1 phosphorylation sites within the minimal phosphodomain are both essential for the rapamycin-induced metaphase arrest. […] The above described system of FKBP12/FRB-dimerizable Mps1 kinase domain and KNL1 phosophodomains is referred to in this example as an ectopic SAC activation system (eSAC).
MELT repeats in the eSAC phosphodomain were phosphorylated only in the presence of rapamycin, and were not phosphorylated if the SAC was activated by creating unattached kinetochores by treatment with the microtubule depolymerizing drug nocodazole (FIG. 18A). Reciprocally, the MELT repeats in endogenous KNL1 were not appreciably phosphorylated in rapamycin-treated cells, but were strongly phosphorylated in nocodazole-treated cells. […]

CC(C)(C)n1nc(-c2cccc3ccccc23)c2c(N)ncnc21 [1-NAPP1]
Effect on SAC activation induced by Mps1 anchored at Mtw1-C (yeast cells; S-phase synchronized ipl1-as6 cells released into 1-NAPP1 and rapamycin): did not have any effect on SAC activation | Inhibition of ipl1-as6 (Sli15-GFP spindle localization) (ipl1-as6): inhibits ipl1-as6

CC(C)(C)n1nc(Cc2cccc3ccccc23)c2c(N)ncnc21 [1NM-PP1]
Effect on SAC activation by Mps1-Frb anchored at the kinetochore (yeast cells; heterozygous diploids expressing mps1-as1 and Mps1-Frb, 1-NMPP1 15 min, then rapamycin): does not affect SAC activation | Effect on eSAC-induced arrest (HeLa cells; 10 μM with Rapamycin, analog-sensitive Mps1S602A kinase domain with minimal phosphodomain): abrogated the eSAC-induced arrest

c1nc2nc(Nc3ccc(N4CCOCC4)cc3)nc(NC3CCCCC3)c2[nH]1 [Reversine]
Effect on rapamycin-induced mitotic arrest (time until anaphase entry) (HeLa cells; HeLa cells in rapamycin-induced arrest, KNL1 phosphodomain-Mps1 dimerization): reversed rapidly | Effect on SAC and cell division (duration of mitosis) (HeLa cells; HeLa cells, Reversine-treated vs untreated, no rapamycin): inactivates the SAC and significantly accelerates cell division

B1: Spc105120: 329: minimal, anchorable phosphodomain comprising residues 120-329 of Spc105, contains all 6 MELT motifs (protein)
chain: LVTSTQIDDARTEEKTAAEEDPDTSGMELTEPIVATSDSNKASQHDPTSMEMTEVFPRSIRQKNPDVEGESIESSQQIDDVEAVREETMELTAIHNVHDYDSISEDTVEGEPIDLTEYESKPYVPNSVSRSTGKSSDYSVERSNDKSDLSKSENKTNSSQPMEITDIFHADPQNPMGLHSDNNINDDGNEMELTQIQTNFDRDNHHIDES
modifications: left off: small tags and cut ends
notes: minimal, anchorable phosphodomain comprising residues 120-329 of Spc105, contains all 6 MELT motifs
Cell-cycle arrest / SAC activation when anchored to Mps1 (yeast cells; anchored to Mps1-Fkbp12 with rapamycin, asynchronously dividing cells): arrested in metaphase

Reference: US12454559B2, “Activating mitotic checkpoint control mechanisms” (The Regents of the University of Michigan, priority 2015, dated 2025)
